Laboratory results reported in ChEMBL document CHEMBL4804281, “STK4 inhibitors for treatment of hematologic malignancies” (2020).
The source made the active and inactive calls. No cut-off for these calls is given here.

Tests used:
[1] = target: T1, Serine/threonine-protein kinase 4 (Homo sapiens) (UniProt Q13043); assay: Inhibition of STK4 (unknown origin) using fluorescein-labelled Ser/Thr-07 peptide as substrate incubated for 1 hr in presence of ATP at Km concentration by Z-LYTE assay
T1 sequence (whole entry): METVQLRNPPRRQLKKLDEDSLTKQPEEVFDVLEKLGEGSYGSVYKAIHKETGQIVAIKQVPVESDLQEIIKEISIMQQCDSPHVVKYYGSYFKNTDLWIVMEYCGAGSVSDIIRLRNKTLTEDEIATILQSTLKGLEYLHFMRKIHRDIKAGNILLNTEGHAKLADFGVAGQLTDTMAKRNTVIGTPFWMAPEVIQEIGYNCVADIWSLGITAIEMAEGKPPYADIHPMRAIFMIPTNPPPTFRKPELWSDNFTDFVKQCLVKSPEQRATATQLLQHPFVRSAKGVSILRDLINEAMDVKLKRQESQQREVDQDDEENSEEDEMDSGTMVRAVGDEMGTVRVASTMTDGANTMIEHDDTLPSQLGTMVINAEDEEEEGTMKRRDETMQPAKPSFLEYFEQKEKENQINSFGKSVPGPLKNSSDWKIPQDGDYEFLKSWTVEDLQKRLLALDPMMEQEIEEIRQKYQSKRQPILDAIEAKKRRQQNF

[2] = target: Serine/threonine-protein kinase 24 (Homo sapiens) (UniProt Q9Y6E0); assay: Inhibition of STK24 (unknown origin) using fluorescein-labelled Ser/Thr-07 peptide as substrate incubated for 1 hr in presence of ATP at Km concentration by Z-LYTE assay
[3] = target: T2, Serine/threonine-protein kinase 3 (Homo sapiens) (UniProt Q13188); assay: Inhibition of STK3 (unknown origin) using fluorescein-labelled Ser/Thr-07 peptide as substrate incubated for 1 hr in presence of ATP at Km concentration by Z-LYTE assay
T2 sequence (whole entry): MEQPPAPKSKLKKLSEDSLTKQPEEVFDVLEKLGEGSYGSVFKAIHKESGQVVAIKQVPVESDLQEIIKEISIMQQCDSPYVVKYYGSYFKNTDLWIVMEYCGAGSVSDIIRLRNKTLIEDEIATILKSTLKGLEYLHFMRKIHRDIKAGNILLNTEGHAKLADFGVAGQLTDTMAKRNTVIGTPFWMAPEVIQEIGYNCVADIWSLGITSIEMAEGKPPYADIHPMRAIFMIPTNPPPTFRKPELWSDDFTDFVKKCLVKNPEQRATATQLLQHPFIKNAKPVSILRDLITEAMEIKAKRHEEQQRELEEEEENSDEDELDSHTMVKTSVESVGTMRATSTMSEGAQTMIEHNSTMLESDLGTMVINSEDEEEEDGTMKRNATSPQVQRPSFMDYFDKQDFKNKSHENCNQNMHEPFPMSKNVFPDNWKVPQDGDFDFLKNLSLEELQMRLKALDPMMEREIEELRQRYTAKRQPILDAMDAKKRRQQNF

[4] = test system: MM1.S; assay: Downregulation of phosphorylated-MOB1 protein level in human MM1.S cells at 1 to 10 uM measured after 6 hrs by Western blot analysis; type: functional, cell-based; conditions: dose 1-10 µM
[5] = test system: MM1.S; assay: Upregulation of YAP1 protein level in human MM1.S cells at 1 uM measured after 16 hrs by Western blot analysis; type: functional, cell-based
[6] = test system: NCI-H929; assay: Upregulation of YAP1 protein level in human NCI-H929 cells at 3 to 10 uM measured after 72 hrs by Western blot analysis; type: functional, cell-based; conditions: dose 3-10 µM
[7] = test system: MM1.S; assay: Upregulation of YAP1 protein level in human MM1.S cells at 3 to 10 uM measured after 72 hrs by Western blot analysis; type: functional, cell-based; conditions: dose 3-10 µM
[8] = test system: NCI-H929; assay: Upregulation of YAP1 protein level in human NCI-H929 cells at 1 to 10 uM measured after 16 hrs by Western blot analysis; type: functional, cell-based; conditions: dose 1-10 µM
[9] = target: T2, Serine/threonine-protein kinase 3 (Homo sapiens); assay: Inhibition of wild-type human partial length MST2 (D17 to E318 residues) expressed in bacterial expression system by Kinomescan method
[10] = target: Casein kinase I isoform gamma-3 (Homo sapiens) (UniProt Q9Y6M4); assay: Inhibition of wild-type human full length CSNK1G3 (M1 to K447 residues) expressed in bacterial expression system by Kinomescan method
[11] = target: Interleukin-1 receptor-associated kinase 1 (Homo sapiens) (UniProt P51617); assay: Inhibition of wild-type human partial length IRAK1 (R194 to S712 residues) expressed in mammalian expression system by Kinomescan method
[12] = target: Serine/threonine-protein kinase 26 (Homo sapiens) (UniProt Q9P289); assay: Inhibition of MST4 (unknown origin) using fluorescein-labelled Ser/Thr-07 peptide as substrate incubated for 1 hr in presence of ATP at Km concentration by Z-LYTE assay
[13] = target: Casein kinase I isoform epsilon (Homo sapiens) (UniProt P49674); assay: Inhibition of wild-type human full length CSNK1E (M1 to K416 residues) expressed in bacterial expression system by Kinomescan method
[14] = test system: MM1.S; assay: Upregulation of YAP1 protein level in human MM1.S cells at 1 to 10 uM measured after 16 hrs by Western blot analysis; type: functional, cell-based; conditions: dose 1-10 µM

Serine/threonine-protein kinase 24 (Homo sapiens), sequence (Q9Y6E0 whole entry, looked up): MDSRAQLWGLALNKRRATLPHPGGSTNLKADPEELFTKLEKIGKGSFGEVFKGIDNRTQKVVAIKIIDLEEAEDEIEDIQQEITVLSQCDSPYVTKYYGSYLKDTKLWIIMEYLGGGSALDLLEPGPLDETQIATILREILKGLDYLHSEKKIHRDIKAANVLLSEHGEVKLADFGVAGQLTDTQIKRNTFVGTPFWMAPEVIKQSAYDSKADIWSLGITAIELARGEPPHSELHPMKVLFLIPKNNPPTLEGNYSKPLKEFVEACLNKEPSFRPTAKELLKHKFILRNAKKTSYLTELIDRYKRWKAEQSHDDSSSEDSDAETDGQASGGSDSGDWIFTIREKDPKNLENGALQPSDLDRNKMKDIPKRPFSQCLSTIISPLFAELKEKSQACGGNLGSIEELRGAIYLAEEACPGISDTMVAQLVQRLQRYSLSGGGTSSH
Serine/threonine-protein kinase 26 (Homo sapiens), sequence (Q9P289 2-416 limits assumed): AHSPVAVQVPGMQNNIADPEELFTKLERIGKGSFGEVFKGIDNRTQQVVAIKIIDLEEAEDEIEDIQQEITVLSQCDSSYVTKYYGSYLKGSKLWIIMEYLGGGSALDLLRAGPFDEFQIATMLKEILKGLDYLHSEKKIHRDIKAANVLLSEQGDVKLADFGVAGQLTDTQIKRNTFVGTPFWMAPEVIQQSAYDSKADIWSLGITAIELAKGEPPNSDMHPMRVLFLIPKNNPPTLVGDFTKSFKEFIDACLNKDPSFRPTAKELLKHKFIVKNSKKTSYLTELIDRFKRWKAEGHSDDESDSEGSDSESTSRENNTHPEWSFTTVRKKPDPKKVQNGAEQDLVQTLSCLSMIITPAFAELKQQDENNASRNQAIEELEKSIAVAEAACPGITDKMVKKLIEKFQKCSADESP
Interleukin-1 receptor-associated kinase 1 (Homo sapiens), sequence (P51617 whole entry, looked up, the tested form may be a part): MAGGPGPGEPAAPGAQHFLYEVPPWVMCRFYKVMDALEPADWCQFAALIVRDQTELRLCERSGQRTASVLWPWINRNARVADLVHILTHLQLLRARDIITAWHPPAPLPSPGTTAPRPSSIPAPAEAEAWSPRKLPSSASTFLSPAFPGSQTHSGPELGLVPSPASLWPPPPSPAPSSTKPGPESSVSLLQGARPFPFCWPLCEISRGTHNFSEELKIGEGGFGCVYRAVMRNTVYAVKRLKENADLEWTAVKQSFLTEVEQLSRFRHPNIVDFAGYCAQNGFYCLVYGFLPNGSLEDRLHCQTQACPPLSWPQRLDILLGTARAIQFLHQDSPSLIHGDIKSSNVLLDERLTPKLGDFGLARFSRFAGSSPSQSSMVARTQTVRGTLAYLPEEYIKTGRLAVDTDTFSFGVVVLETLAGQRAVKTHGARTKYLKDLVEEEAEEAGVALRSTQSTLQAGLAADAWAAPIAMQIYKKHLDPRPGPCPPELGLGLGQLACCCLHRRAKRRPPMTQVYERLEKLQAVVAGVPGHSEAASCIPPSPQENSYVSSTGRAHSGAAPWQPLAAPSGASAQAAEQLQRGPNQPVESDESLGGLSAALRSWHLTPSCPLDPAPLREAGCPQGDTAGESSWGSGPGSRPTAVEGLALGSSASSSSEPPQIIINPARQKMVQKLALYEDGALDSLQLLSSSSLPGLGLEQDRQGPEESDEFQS
Casein kinase I isoform epsilon (Homo sapiens), sequence (P49674 whole entry, looked up, the tested form may be a part, canonical isoform): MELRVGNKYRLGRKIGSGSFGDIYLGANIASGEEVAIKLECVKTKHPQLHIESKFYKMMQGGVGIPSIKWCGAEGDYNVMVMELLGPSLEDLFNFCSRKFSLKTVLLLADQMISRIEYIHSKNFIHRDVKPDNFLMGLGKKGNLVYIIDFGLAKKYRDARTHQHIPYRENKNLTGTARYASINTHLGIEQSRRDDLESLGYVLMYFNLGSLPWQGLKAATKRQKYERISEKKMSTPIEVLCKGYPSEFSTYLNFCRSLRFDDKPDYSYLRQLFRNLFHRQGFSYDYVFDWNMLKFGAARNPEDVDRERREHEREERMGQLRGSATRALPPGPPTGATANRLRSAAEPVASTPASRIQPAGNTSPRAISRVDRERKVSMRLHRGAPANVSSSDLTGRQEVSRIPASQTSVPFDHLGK
Casein kinase I isoform gamma-3 (Homo sapiens), sequence (Q9Y6M4 whole entry, looked up, the tested form may be a part, canonical isoform): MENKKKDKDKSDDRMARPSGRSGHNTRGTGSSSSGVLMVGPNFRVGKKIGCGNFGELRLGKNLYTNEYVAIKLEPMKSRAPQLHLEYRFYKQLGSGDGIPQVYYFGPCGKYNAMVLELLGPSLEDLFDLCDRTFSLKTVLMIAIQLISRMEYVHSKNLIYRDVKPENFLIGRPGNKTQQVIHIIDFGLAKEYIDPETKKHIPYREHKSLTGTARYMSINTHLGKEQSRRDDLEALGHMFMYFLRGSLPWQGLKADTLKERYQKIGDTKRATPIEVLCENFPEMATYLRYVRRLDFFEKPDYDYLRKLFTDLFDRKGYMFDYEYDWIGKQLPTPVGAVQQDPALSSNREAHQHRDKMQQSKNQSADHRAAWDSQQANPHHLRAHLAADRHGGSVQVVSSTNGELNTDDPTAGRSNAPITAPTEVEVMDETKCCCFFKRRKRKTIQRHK

Row | SMILES | IC50 [1] | further results
1 | Nc1ncc(-c2cccc(-c3nccs3)c2)cc1-c1ccc2c(c1)CCNC2=O | < 40 nM | 
2 | N#Cc1cccc(-c2cnc(N)c(-c3ccc4c(c3)CCNC4=O)c2)c1 | 40 nM | IC50 [2]: 200 nM; IC50 [3]: 40 nM
3 | CN1CCc2cc(-c3cc(-c4ccc(S(=O)(=O)N(C)C5CC5)cc4F)cnc3N)ccc2C1=O | < 40 nM | 
4 | Nc1ncc(-c2ccccc2F)cc1-c1ccc2c(c1)CCNC2=O | 40 nM | 
5 | COc1cc(S(=O)(=O)NC2CC2)ccc1-c1cnc(N)c(-c2ccc3c(c2)CCNC3=O)c1 | < 40 nM | 
6 | CC(C)Oc1cc(NS(=O)(=O)C2CC2)ccc1-c1cnc(N)c(-c2ccc3c(c2)CCNC3=O)c1 | < 40 nM | 
7 | Nc1ncc(-c2cccc3scnc23)cc1-c1ccc2c(c1)CCNC2=O | 40 nM | 
8 | CN(C1CC1)S(=O)(=O)c1ccc(-c2cnc(N)c(-c3ccc4c(=O)[nH]cnc4c3)c2)c(F)c1 | < 40 nM | 
9 | Nc1ncc(-c2ccc(F)c3ncsc23)cc1-c1ccc2c(c1)CNC2=O | 40 nM | 
10 | NC(=O)c1ccc(-c2cc(-c3cc([N+](=O)[O-])ccc3F)cnc2N)cc1 | 200 nM | 
11 | C#Cc1cc(F)c(-c2cnc(N)c(-c3ccc4c(c3)CCNC4=O)c2)cc1[N+](=O)[O-] | 40 nM | 
12 | COc1cc(S(=O)(=O)N(C)C2CC2)ccc1-c1cnc(N)c(-c2ccc3c(c2)CCNC3=O)c1 | < 40 nM | IC50 [2]: 40 nM; IC50 [3]: < 40 nM
13 | Nc1ncc(-c2cc([N+](=O)[O-])c(NCc3ccccc3)cc2F)cc1-c1ccc2c(c1)CCNC2=O | 40 nM | Activity [4]: Active
14 | Nc1ncc(-c2cc([N+](=O)[O-])ccc2Cl)cc1-c1ccc2c(c1)CCNC2=O | > 900 nM | 
15 | Nc1ncc(-c2ccc3ncsc3c2)cc1-c1ccc2c(c1)CCNC2=O | 40 nM | 
16 | CCNC(=O)c1ccc(F)c(-c2cnc(N)c(-c3ccc4c(c3)CCNC4=O)c2)c1 | > 900 nM | 
17 | Nc1ncc(-c2cnccc2F)cc1-c1ccc2c(c1)CCNC2=O | 200 nM | 
18 | Nc1ncc(-c2ccc(F)c3ncsc23)cc1-c1ccc2c(c1)CCNC2=O | < 40 nM | 
19 | Nc1ncc(-c2cc3scnc3cc2F)cc1-c1ccc2c(c1)CCNC2=O | 40 nM | 
20 | Nc1ncc(-c2cccc([N+](=O)[O-])c2)cc1-c1ccc2c(c1)CCNC2=O | < 40 nM | 
21 | COc1cc(S(=O)(=O)N(C)C2CCOCC2)ccc1-c1cnc(N)c(-c2ccc3c(c2)CCNC3=O)c1 | 40 nM | 
22 | NC(=O)c1ccc(-c2cc(-c3cc([N+](=O)[O-])ccc3F)cnc2N)cc1Cl | 200 nM | 
23 | Nc1ncc(-c2cncc3ncsc23)cc1-c1ccc2c(c1)CCNC2=O | 200 nM | 
24 | Nc1ncc(-c2ccc(NS(=O)(=O)C3CC3)cc2OC2CCCC2)cc1-c1ccc2c(c1)CCNC2=O | < 40 nM | 
25 | Nc1ncc(-c2scnc2Cl)cc1-c1ccc2c(c1)CCNC2=O | 40 nM | IC50 [2]: > 900 nM; IC50 [3]: 40 nM
26 | Nc1ncc(-c2ccc([N+](=O)[O-])cc2F)cc1-c1ccc2c(c1)CCNC2=O | 40 nM | 
27 | CCOc1cc(S(=O)(=O)N(C)C2CC2)ccc1-c1cnc(N)c(-c2ccc3c(c2)CCNC3=O)c1 | < 40 nM | 

Row | SMILES | IC50 [1] | further results
28 | C#Cc1ccc(-c2cnc(N)c(-c3ccc4c(c3)CCNC4=O)c2)c(OC)c1 | < 40 nM | 
29 | Nc1ncc(-c2ccc(NS(=O)(=O)C3CC3)cc2OCc2ccccc2)cc1-c1ccc2c(c1)CCNC2=O | 40 nM | 
30 | Nc1ncc(-c2cc(F)ccc2[N+](=O)[O-])cc1-c1ccc2c(c1)CCNC2=O | > 900 nM | 
31 | COc1ccncc1-c1cnc(N)c(-c2ccc3c(c2)CCNC3=O)c1 | > 900 nM | 
32 | Cc1cc(N2CCOCC2)cc2[nH]c(-c3c(NC[C@@H](O)c4cccc(Cl)c4)cc[nH]c3=O)nc12 | 40 nM | Activity [5]: inactive
33 | Nc1ncc(-c2cccc(S(=O)(=O)NC3CC3)c2)cc1-c1ccc2c(c1)CCNC2=O | 40 nM | IC50 [2]: 200 nM; Activity [6]: Active; IC50 [3]: 40 nM; Activity [7]: Active
34 | Cn1cnc2c(-c3cnc(N)c(-c4ccc5c(c4)CCNC5=O)c3)cccc21 | 40 nM | 
35 | CN1CCc2cc(-c3cc(-c4cccc5ncsc45)cnc3N)ccc2C1=O | 40 nM | 
36 | CC(C)Oc1cc(S(=O)(=O)N(C)C2CC2)ccc1-c1cnc(N)c(-c2ccc3c(c2)CNC3=O)c1 | < 40 nM | 
37 | Nc1ncc(-c2cc([N+](=O)[O-])cnc2F)cc1-c1ccc2c(c1)CCNC2=O | 200 nM | 
38 | Cc1cc(S(=O)(=O)N(C)C2CC2)ccc1-c1cnc(N)c(-c2ccc3c(c2)CCNC3=O)c1 | < 40 nM | 
39 | COc1cc(-c2nccs2)ccc1-c1cnc(N)c(-c2ccc3c(c2)CCNC3=O)c1 | 40 nM | 
40 | Nc1ncc(-c2cc([N+](=O)[O-])cc(F)c2F)cc1-c1ccc2c(c1)CCNC2=O | 40 nM | 
41 | Nc1ncc(-c2cccc(NS(=O)(=O)C3CC3)c2)cc1-c1ccc2c(c1)CCNC2=O | < 40 nM | 
42 | Nc1ncc(-c2cc(-c3cccc4ncsc34)ccc2F)cc1-c1ccc2c(=O)[nH]cnc2c1 | 40 nM | 
43 | Nc1ncc(-c2cc([N+](=O)[O-])c(Cl)cc2F)cc1-c1ccc2c(c1)CCNC2=O | 40 nM | Activity [4]: Active; IC50 [3]: 40 nM
44 | Nc1ncc(-c2cc([N+](=O)[O-])ccc2F)cc1-c1ccc2c(c1)CCNC2=O | < 40 nM | Activity [8]: Active; Activity [4]: Active; Kd [9]: 42.6 nM; IC50 [2]: > 900 nM; Kd [10]: 4.68 nM; IC50 [3]: 40 nM; Kd [11]: 110 nM; IC50 [12]: > 900 nM; Kd [13]: 201 nM; Activity [14]: Active
45 | COc1cc(S(=O)(=O)N(C)C2CCCCC2)ccc1-c1cnc(N)c(-c2ccc3c(c2)CCNC3=O)c1 | 40 nM | 
46 | Nc1ncc(-c2cc(F)cc([N+](=O)[O-])c2)cc1-c1ccc2c(c1)CCNC2=O | 40 nM | 
47 | Nc1ncc(-c2cccc(S(N)(=O)=O)c2)cc1-c1ccc2c(c1)CCNC2=O | 200 nM | 
48 | N#Cc1cc(-c2cc(-c3cc([N+](=O)[O-])ccc3F)cnc2N)ccc1O | 200 nM | 
49 | CN(C1CC1)S(=O)(=O)c1ccc(-c2cnc(N)c(-c3ccc4c(c3)CNC4=O)c2)c(F)c1 | < 40 nM | IC50 [2]: > 900 nM; IC50 [3]: < 40 nM
50 | CN(C1CC1)S(=O)(=O)c1ccc(-c2cnc(N)c(-c3ccc4c(c3)CCNC4=O)c2)cc1 | < 40 nM | Activity [5]: Active
51 | Nc1ncc(-c2cccc3sccc23)cc1-c1ccc2c(c1)CCNC2=O | < 40 nM | 
52 | Nc1ncc(-c2cc3c(cc2F)OCC(=O)N3)cc1-c1ccc2c(c1)CCNC2=O | < 40 nM | Activity [4]: Active; IC50 [3]: 40 nM
53 | CC(C)Oc1cc(S(=O)(=O)N(C)C2CC2)ccc1-c1cnc(N)c(-c2ccc3c(c2)CCNC3=O)c1 | < 40 nM | 
